# Test results as given in US20120142646A1, “Novel Compounds 621” (priority 2006, published 2012).
# Counter-ions that a name gives are not always drawn.
# Molecular target: T1, Adrenergic β2 (Homo sapiens, UniProt P07550)
# T1 construct: Adherent H292 cells were removed from tissue culture flasks; endogenous in cells; host or cells: H292 cells
# Assay: Adrenergic β2 mediated cAMP production in H292 cells (AlphaScreen cAMP detection)
# Type: cell-based
# Parameters: key to β2 Int Act: fraction of formoterol maximum activity (formoterol = 1)
# Conditions: Intrinsic Activity as a fraction relative to the maximum activity determined for formoterol
# Method in brief: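 H292 cells pre-treated 10 min with rolipram (300 μM final), then given agonist for 60 min at room temperature in HBSS/10 mM HEPES pH 7.4, 1.6% DMSO final. Lysate cAMP measured by AlphaScreen against a cAMP standard curve. Four-parameter fit gives pEC50; intrinsic activity relative to formoterol maximum.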
# T1 sequence (P07550 whole entry): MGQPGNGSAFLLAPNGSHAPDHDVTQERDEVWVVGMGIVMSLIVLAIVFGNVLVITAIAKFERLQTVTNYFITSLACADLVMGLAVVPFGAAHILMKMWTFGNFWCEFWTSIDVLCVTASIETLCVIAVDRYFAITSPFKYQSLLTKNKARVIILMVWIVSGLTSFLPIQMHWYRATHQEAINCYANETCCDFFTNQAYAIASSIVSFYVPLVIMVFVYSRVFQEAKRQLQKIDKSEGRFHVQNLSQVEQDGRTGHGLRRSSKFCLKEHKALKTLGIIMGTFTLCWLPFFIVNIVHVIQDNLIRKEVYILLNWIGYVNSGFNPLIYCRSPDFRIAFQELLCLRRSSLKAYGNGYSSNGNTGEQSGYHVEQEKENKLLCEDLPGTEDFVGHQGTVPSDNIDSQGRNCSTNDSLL
row,SMILES,β2 Int Act
1,"Cl.O=C(CCOCCc1ccccc1F)N(CCNCCc1ccc(O)c2[nH]c(=O)ccc12)C1CCCCC1 [Example 73, N-Cyclohexyl-3-(2-fluorophenethoxy)-N-(2-(2-(8-hydroxy-2-oxo-1,2-dihydroquinolin-5-yl)ethylamino)ethyl)propanamide hydrochloride]",0.94
2,"O=C1COc2c(CCNCCN(C(=O)CCOCCc3cccc(F)c3)C3CCCCC3)ccc(O)c2N1 [Example 74, N-Cyclohexyl-3-(3-fluorophenethoxy)-N-(2-(2-(5-hydroxy-3-oxo-3,4-dihydro-2H-benzo[b][1,4]oxazin-8-yl)ethylamino)ethyl)propanamide trifluoroacetate]",0.97
3,"O=C1COc2c(CCNCCN(C(=O)CCOCCc3ccc(F)cc3)C3CCCCC3)ccc(O)c2N1 [Example 75, N-Cyclohexyl-3-(4-fluorophenethoxy)-N-(2-(2-(5-hydroxy-3-oxo-3,4-dihydro-2H-benzo[b][1,4]oxazin-8-yl)ethylamino)ethyl)propanamide trifluoroacetate]",0.96
4,"O=C1COc2c(CCNCCN(C(=O)CCOCCc3ccccc3F)C3CCCCC3)ccc(O)c2N1 [Example 76, N-Cyclohexyl-3-(2-fluorophenethoxy)-N-(2-(2-(5-hydroxy-3-oxo-3,4-dihydro-2H-benzo[b][1,4]oxazin-8-yl)ethylamino)ethyl)propanamide trifluoroacetate]",1.1
5,"O=C1COc2c(CCNCCN(C(=O)CCOCCc3cccc(Cl)c3)C3CCCCC3)ccc(O)c2N1 [Example 77, 3-(3-Chlorophenethoxy)-N-cyclohexyl-N-(2-(2-(5-hydroxy-3-oxo-3,4-dihydro-2H-benzo[b][1,4]oxazin-8-yl)ethylamino)ethyl)propanamide trifluoroacetate]",0.97
6,"CC[C@@H](C)N(CCNCCc1ccc(O)c2[nH]c(=O)ccc12)C(=O)CCOCCc1ccccc1.Cl [Example 79, (R)—N-sec-Butyl-N-(2-(2-(8-hydroxy-2-oxo-1,2-dihydroquinolin-5-yl)ethylamino)ethyl)-3-phenethoxypropanamide hydrochloride]",0.92
